# According to patent publication US8461305B2, “L-fucose α1→6 specific lectin” (J-Oil Mills, Inc., priority 2008, dated 2013):
# Assays:
# [1] = frontal affinity chromatography (FAC), association constant to PA sugar chains having α1→6 L-fucose; assay type: binding; settings: 25 degrees C.
# Experimental: The following section will describe a method of calculating an association constant by frontal affinity chromatography (FAC). This method is based on the following principle. […] Then, the elution front end (front) is observed immediately. When there is an affinity with lectin, the elution of the sugar chain is delayed.
# The preparation of a lectin column used in the apparatus is performed in the method as described below. 1. Purified lectin is dissolved in 0.1 to 0.2M of NaHCO3 buffer solution (pH 8.3 to 8.5). 2. The lectin is immobilized, via a lectin primary amino group, a carrier such as NHS activated sepharose. 3. Then, the lectin is blocked by Tris buffer solution including primary amine or ethanolamine for example. 4. Lectin-sepharose is suspended in 10 mM Tris buffer, including 0.8% of NaCl (pH 7.4, TBS). Then, lectin immobilized resin is filled in a miniature column (φ2 mm×10 mm, 31.4 μl). 5. The miniature column in which the lectin immobilized resin is filled is protected by a holder and the lectin column is connected to an FAC automatic analysis apparatus (FAC-1, SHIMADZU CORPORATION).
# Then, the elution of the PA sugar chain from the column is detected by a fluorescence detector (excitation wavelength/fluorescence wavelength: 310 nm/380 nm).
# Based on the detection data, by using the elution front end (Vo) of the sugar chain (PA rhamnose) not interacting with lectin as a reference, the delay (V−Vo) of the elution front end (V) of a sugar chain interacting with lectin is calculated as an interaction strength. Then, based on the following FAC criteria expressions, the association constant (Ka) between the sugar chain and lectin is calculated based on V−Vo and Bt. If the interaction strength (V−Vo value) and the association constant are higher, a higher affinity is caused between lectin and an L-fucose α1→6 sugar chain.
# [In the formula, A means substance used for the elution, Ao means the initial concentration of the substance A, B means a immobilized ligand, V means the elution volume, Vo means the elution front end volume of the substance not interacting with the immobilized ligand B at all, Bt means an effective ligand amount, Kd means a dissociation constant (an inverse of the association constant)].
# Pyridylaminated (PA) sugar chains shown in FIG. 1 and FIG. 2 were used to frontal affinity chromatography (FAC) analysis. PA sugars were purchased from TAKARA BIO INC., SEIKAGAKU BIOBUSINESS CORPORATION, and Masuda Chemical Industries co., LTD. PA sugar were also obtained by pyridylaminating, by GlycoTAG®(TAKARA BIO INC.), an unlabeled sugar chain or a sugar chain obtained by subjecting a sugar chain to enzyme digestion for example.
# Lectin was dissolved in 0.2 M NaHCO3 buffer solution (pH 8.3) including 0.5 M NaCl and coupled to the NHS-activated sepharose (GE Healthcare Bioscience) by following the manufacturer's instructions. Then, lectin immobilized sepharose was suspended in 10 mM Tris buffer (pH 7.4, TBS) including […] and the resultant matter was filled in a miniature column (φ2 mm×10 mm, 31.4 μl).
# Frontal affinity chromatography was performed using FAC automatic analysis apparatus (FAC-1, SHIMADZU CORPORATION). In particular, the above-prepared lectin column was inserted to a stainless steel holder and the holder was connected to FAC-1 apparatus. The flow rate and the column temperature were maintained at 0.125 ml/min and 25 degrees C., respectively. After the miniature column was equilibrated by the TBS, an excessive volume (0.5 ml to 4 ml) of a PA sugar chain (3.75 nM or 7.5 nM) was continuously inputted to the column using an automatic sampling apparatus.
# The fluorescent strength of the eluate of the PA sugar (excitation wavelength of 310 nm and fluorescence wavelength of 380 nm) was monitored to measure the interaction strength [a difference of the front end eluate to the standard oligosaccharide (PA rhamnose): V−V0]. […]
# [2] = hemagglutinating inhibition test with sugars (sugar binding specificity); assay type: cell-based
# Source text: The sugar binding specificity of lectin also can be confirmed by using erythrocytes that can be specifically agglutinated by the lectin to investigate the sugar type that may inhibit the agglutination of the erythrocytes and the concentration thereof.
# Various monosaccharides, oligosaccharides, and polysaccharides shown in Table 2 and glycoproteins shown in Table 3 were subjected to hemagglutinating inhibition test to evaluate PTL of Example 1 and the SRL of Example 2 with regard to the sugar binding specificity.
# On a 96 well U-bottom microtiter plate, double dilution series of 10 μl of monosaccharide, oligosaccharide, polysaccharide, and glycoprotein solutions were prepared. Then, lectin solution adjusted in advance to have titer 4 was added in an amount of 10 μl to the respective wells. Then, the plate was subjected to a still-standing at a room temperature for one hour for sensitization. Then, 10 μl of 4%-red blood cell suspension was added to the respective wells and the plate was further subjected to a still-standing at a room temperature for one hour. […] The lowest concentration showing the inhibition was assumed as the minimum inhibition concentration. The lower the minimum inhibition concentration is, the higher the specificity to lectin is.
# For comparison, the sugar binding specificity was evaluated using the following commercially-available lectins: Comparison Example 1: AAL (SEIKAGAKU BIOBUSINESS CORPORATION—J-OIL MILLS, Inc.), Comparison Example 2: AOL (TOKYO CHEMICAL INDUSTRY CO., LTD.—Gekkeikan Sake Company, Ltd.), Comparison Example 3: LCA (SEIKAGAKU BIOBUSINESS CORPORATION—J-OIL MILLS, Inc.), and Comparison Example 4: PSA (SEIKAGAKU BIOBUSINESS CORPORATION—J-OIL MILLS, Inc.).
substance,measurement,setting,value
"Pholiota terrestris lectin [PTL, novel L-fucose α1→6 specific lectin purified from the mushroom Pholiota terrestris]",association constant Ka to L-fucose α1→6 sugar chains,[1]; FAC,≥ 100000 M⁻¹
same,association constant Ka,[1]; Sugar chain No. 015,500000 M⁻¹
same,association constant Ka,[1]; Sugar chain No. 201,460000 M⁻¹
same,association constant Ka,[1]; Sugar chain No. 202,400000 M⁻¹
same,association constant Ka,[1]; Sugar chain No. 203,330000 M⁻¹
same,association constant Ka,[1]; Sugar chain No. 401,350000 M⁻¹
same,association constant Ka,[1]; Sugar chain No. 402,200000 M⁻¹
same,association constant Ka,[1]; Sugar chain No. 403,340000 M⁻¹
same,association constant Ka,[1]; Sugar chain No. 404,390000 M⁻¹
same,association constant Ka,[1]; Sugar chain No. 405,320000 M⁻¹
same,association constant Ka,[1]; Sugar chain No. 406,220000 M⁻¹
same,association constant Ka,[1]; Sugar chain No. 407,280000 M⁻¹
same,association constant Ka,[1]; Sugar chain No. 410,220000 M⁻¹
same,association constant Ka,[1]; Sugar chain No. 413,280000 M⁻¹
same,association constant Ka,[1]; Sugar chain No. 418,220000 M⁻¹
same,association constant Ka,[1]; Sugar chain No. 601,240000 M⁻¹
same,association constant Ka,[1]; Sugar chain No. 602,120000 M⁻¹
same,minimum inhibition concentration of hemagglutination,[2]; inhibitor: Fructose,>100 mM
same,minimum inhibition concentration of hemagglutination,[2]; inhibitor: Galactose,>100 mM
same,minimum inhibition concentration of hemagglutination,[2]; inhibitor: Glucose,>100 mM
same,minimum inhibition concentration of hemagglutination,[2]; inhibitor: L-fucose,>100 mM
same,minimum inhibition concentration of hemagglutination,[2]; inhibitor: Lactose,>6 mM
same,minimum inhibition concentration of hemagglutination,[2]; inhibitor: Maltose,>100 mM
same,minimum inhibition concentration of hemagglutination,[2]; inhibitor: Mannose,>100 mM
same,minimum inhibition concentration of hemagglutination,[2]; inhibitor: Melibiose,>100 mM
same,minimum inhibition concentration of hemagglutination,[2]; inhibitor: Metyl α-mannoside,>100 mM
same,minimum inhibition concentration of hemagglutination,[2]; inhibitor: N-Acetylneuraminic acid,>100 mM
same,minimum inhibition concentration of hemagglutination,[2]; inhibitor: N-acetylgalactosamine,>100 mM
same,minimum inhibition concentration of hemagglutination,[2]; inhibitor: N-acetylglucosamine,>100 mM
same,minimum inhibition concentration of hemagglutination,[2]; inhibitor: N-glycolylneuraminic acid,>100 mM
same,minimum inhibition concentration of hemagglutination,[2]; inhibitor: Raffinose,>100 mM
same,minimum inhibition concentration of hemagglutination,[2]; inhibitor: Rhamnose,>100 mM
same,minimum inhibition concentration of hemagglutination,[2]; inhibitor: Serial lactose,>6 mM
same,minimum inhibition concentration of hemagglutination,[2]; inhibitor: Sucrose,>100 mM
same,minimum inhibition concentration of hemagglutination,[2]; inhibitor: Xylose,>100 mM
"Lepista sordida lectin [LSL, novel lectin purified from the mushroom Lepista sordida]",association constant Ka,[1]; Sugar chain No. 015,190000 M⁻¹
same,association constant Ka,[1]; Sugar chain No. 201,230000 M⁻¹
same,association constant Ka,[1]; Sugar chain No. 202,230000 M⁻¹
same,association constant Ka,[1]; Sugar chain No. 203,200000 M⁻¹
same,association constant Ka,[1]; Sugar chain No. 401,220000 M⁻¹
same,association constant Ka,[1]; Sugar chain No. 402,150000 M⁻¹
same,association constant Ka,[1]; Sugar chain No. 403,220000 M⁻¹
same,association constant Ka,[1]; Sugar chain No. 404,260000 M⁻¹
same,association constant Ka,[1]; Sugar chain No. 405,220000 M⁻¹
same,association constant Ka,[1]; Sugar chain No. 406,160000 M⁻¹
same,association constant Ka,[1]; Sugar chain No. 410,160000 M⁻¹
same,association constant Ka,[1]; Sugar chain No. 418,160000 M⁻¹
same,association constant Ka,[1]; Sugar chain No. 602,130000 M⁻¹
